pIC50: −log10 of the molar value.
biological target: T1, TLR8 (Homo sapiens, UniProt Q9NR97); experiment: THP-1 TLR8 Antagonist TNFalpha TR-FRET Assay; assay type: cell-based; parameters: endogenous in cells; conditions: THP-1 cells with R848 agonist, 18-20 hrs; TNFalpha TR-FRET read-out
T1 sequence (Q9NR97 27-1041): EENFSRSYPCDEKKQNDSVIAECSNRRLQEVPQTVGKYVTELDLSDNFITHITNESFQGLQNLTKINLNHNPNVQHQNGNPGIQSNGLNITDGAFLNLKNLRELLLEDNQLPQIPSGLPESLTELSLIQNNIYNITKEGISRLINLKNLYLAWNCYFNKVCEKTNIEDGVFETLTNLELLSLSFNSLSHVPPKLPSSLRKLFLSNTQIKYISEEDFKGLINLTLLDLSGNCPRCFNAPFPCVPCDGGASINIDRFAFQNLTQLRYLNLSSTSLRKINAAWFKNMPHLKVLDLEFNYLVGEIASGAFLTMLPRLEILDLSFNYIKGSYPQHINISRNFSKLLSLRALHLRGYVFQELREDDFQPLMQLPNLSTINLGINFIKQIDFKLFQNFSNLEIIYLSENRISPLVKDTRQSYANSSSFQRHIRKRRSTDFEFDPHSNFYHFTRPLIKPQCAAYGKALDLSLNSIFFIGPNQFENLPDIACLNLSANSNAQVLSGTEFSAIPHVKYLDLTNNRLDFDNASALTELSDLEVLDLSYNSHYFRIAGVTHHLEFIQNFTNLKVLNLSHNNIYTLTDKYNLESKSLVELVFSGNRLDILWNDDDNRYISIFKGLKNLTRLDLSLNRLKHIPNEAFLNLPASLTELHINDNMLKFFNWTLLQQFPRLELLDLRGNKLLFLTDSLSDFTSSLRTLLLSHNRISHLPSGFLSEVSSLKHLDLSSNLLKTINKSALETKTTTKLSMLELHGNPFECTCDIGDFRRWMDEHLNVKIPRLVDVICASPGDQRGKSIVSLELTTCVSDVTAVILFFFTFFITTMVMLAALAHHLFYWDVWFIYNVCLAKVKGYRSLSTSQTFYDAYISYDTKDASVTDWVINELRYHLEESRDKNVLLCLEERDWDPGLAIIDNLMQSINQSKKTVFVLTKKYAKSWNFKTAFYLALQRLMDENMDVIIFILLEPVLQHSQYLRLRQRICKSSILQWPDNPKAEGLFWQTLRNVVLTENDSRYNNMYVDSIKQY
Method: Cell-based assay: • 1) THP-1cells were cultured in RPMI 1640 with 10% FBS, 10 mM HEPES, 1 mM Sodium Pyruvate, 1% Penicillin-Streptomycin L-glutamine, and 1% Non-Essential Amino Acids; • 2) 3 sets of different passages of THP-1cells in assay media were pooled, counted, and resuspended in the same media as culture media, but with 5% FBS; • 3) Cells were diluted to 100,000 cells/well (30 μl/well) and the R848 agonist was diluted to 25 μM in 10 μl/well in media; • 4) The cell and agonist dilutions were combined and 40 μl/well were added to 384-well flat bottom Greiner assay plates containing test compounds in DMSO, which were Echo pre-spotted at 50 nL per well with a 8 mM top dose and 10 point 1:3 serial dilutions—10 μM final top dose; • 5) The plates were incubated overnight for 18-20 hrs at 37 degrees with 5% CO2; • 6) The plates were then centrifuged at 1000 rpm for 2 min at rt; • 7) 10 μl/well of supernatants were transferred to 384-well low volume white Greiner proxiplates; and • 8) TNFα levels were measured using the TR-FRET assay described below.
• 1) Cisbio Human TNFalpha kit, 20,000 tests (62TNFPEC), and Greiner Bio-One LIA-white TC 384 well small volume plates (cat #784080) were used; • 2) the Anti-TNFalpha Cryptate conjugate and the Anti-TNFalpha XL665 conjugate were diluted 1:20 in Reconstitution Buffer; • 3) a 1:1 mixture of 5 μl/well Anti-TNFalpha Cryptate conjugate and 5 μl/well Anti-TNFalpha XL665 conjugate was prepared; • 4) 10 μl/well HTRF dilution mastermix were added to 10 μl of transferred supernatant samples in proxiplates; • 5) The plates were incubated for 3 hrs at rt in the dark; and • 6) the levels of TNFalpha production was measured using an Envision plate reader (665 nm (emmission)/590 nm (excitation)).

| SMILES | pIC50 |
| --- | --- |
| Cn1ncc2c(N3CCc4c(cnn4CC45CCC(N)(CC4)CC5)C3)nc(N)nc21 [compound 11, 4-(1-((4-aminobicyclo[2.2.2]octan-1-yl)methyl)-6,7-dihydro-1H-pyrazolo[4,3-c]pyridin-5(4H)-yl)-1-methyl-1H-pyrazolo[3,4-d]pyrimidin-6-amine] | 5.08 |
| Cn1ncc2c(N3CCc4nn(CC56CCC(N)(CC5)CC6)cc4C3)nc(N)nc21 [compound 12, 4-(2-((4-aminobicyclo[2.2.2]octan-1-yl)methyl)-6,7-dihydro-2H-pyrazolo[4,3-c]pyridin-5(4H)-yl)-1-methyl-1H-pyrazolo[3,4-d]pyrimidin-6-amine] | < 5.00 |
| Cc1c2c(nn1CC13CCC(N)(CC1)CC3)CCN(c1nc(N)nc3c1cnn3C)C2 [compound 14, 4-(2-((4-aminobicyclo[2.2.2]octan-1-yl)methyl)-3-methyl-6,7-dihydro-2H-pyrazolo[4,3-c]pyridin-5(4H)-yl)-1-methyl-1H-pyrazolo[3,4-d]pyrimidin-6-amine] | < 5.00 |
